# Measurements taken from ChEMBL document CHEMBL1146191, “Synthesis and evaluation of novel 1-(2-acylhydrazinocarbonyl)-cycloalkyl carboxamides as interleukin-1beta converting enzyme (ICE) inhibitors” (Bioorg Med Chem Lett, 2006).
# Tests used:
# Caspase-1 = target: T1, Caspase-1 (Homo sapiens, UniProt P29466); assay: Inhibition of ICE
# T1 sequence (P29466 whole entry): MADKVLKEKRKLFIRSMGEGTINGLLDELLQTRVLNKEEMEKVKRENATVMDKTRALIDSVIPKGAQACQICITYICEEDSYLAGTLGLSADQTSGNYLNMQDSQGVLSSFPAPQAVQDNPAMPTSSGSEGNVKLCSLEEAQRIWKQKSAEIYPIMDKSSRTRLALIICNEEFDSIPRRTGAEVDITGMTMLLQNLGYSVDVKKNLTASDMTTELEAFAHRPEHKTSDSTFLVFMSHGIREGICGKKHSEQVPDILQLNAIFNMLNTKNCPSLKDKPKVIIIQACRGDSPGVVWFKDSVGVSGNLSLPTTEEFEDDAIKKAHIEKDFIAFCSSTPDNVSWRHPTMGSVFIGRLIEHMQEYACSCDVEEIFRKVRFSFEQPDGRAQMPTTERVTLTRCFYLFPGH
# Caspase-8 = Caspase-8 (Homo sapiens, UniProt Q14790); assay: Inhibition of caspase8
# Caspase-3 = target: T2, Caspase-3 (Homo sapiens, UniProt P42574); assay: Inhibition of caspase3
# T2 sequence (P42574 whole entry): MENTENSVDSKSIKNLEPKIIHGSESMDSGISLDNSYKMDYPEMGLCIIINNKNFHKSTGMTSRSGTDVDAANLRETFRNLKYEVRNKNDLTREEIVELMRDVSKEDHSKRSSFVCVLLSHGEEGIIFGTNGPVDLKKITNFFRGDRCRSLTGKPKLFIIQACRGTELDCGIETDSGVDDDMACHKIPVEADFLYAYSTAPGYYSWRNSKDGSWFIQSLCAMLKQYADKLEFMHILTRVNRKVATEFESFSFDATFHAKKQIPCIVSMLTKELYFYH
# THP-1 = assay: Inhibition of IL1-beta secretion in human THP1 cells; type: functional, cell-based
# Caspase-8, sequence (Q14790 217-374 limits assumed): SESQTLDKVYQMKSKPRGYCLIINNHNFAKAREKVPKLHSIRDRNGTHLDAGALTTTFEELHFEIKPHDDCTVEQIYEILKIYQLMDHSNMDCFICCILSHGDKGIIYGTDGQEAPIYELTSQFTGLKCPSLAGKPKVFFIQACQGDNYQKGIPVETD
# Caspase-8, sequence (Q14790 385-479 limits assumed): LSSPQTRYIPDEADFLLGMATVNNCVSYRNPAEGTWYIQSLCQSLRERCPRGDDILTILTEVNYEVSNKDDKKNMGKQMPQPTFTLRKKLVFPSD
IC50 (Caspase-1) [nM],IC50 (Caspase-8) [nM],IC50 (Caspase-3) [µM],IC50 (THP-1) [nM],SMILES
50,70,> 10,450,O=C1C[C@H](NC(=O)C2(C(=O)NNC(=O)c3cccc4ccccc34)CCCCC2)C(O)O1 (stereo not given in full)
490,1200,> 10,2000,Cc1cccc(C(=O)NNC(=O)C2(C(=O)N[C@H]3CC(=O)OC3O)CCCC2)c1 (stereo not given in full)
≥ 10000,230,> 10,≥ 2500,Cc1cccc(C)c1C(=O)NNC(=O)C1(C(=O)N[C@H]2CC(=O)OC2O)CCCCC1 (stereo not given in full)
240,6300,> 10,,O=C1C[C@H](NC(=O)C2(C(=O)NNC(=O)c3ccc4ccccc4c3)CCC2)C(O)O1 (stereo not given in full)
90,2600,> 10,790,O=C1C[C@H](NC(=O)C2(C(=O)NNC(=O)c3ccc4ccccc4c3)CCCCC2)C(O)O1 (stereo not given in full)
30,2100,> 10,500,O=C1C[C@H](NC(=O)C2(C(=O)NNC(=O)c3ccc4ccccc4c3)Cc3ccccc3C2)C(O)O1 (stereo not given in full)
2900,≥ 10000,> 10,6400,O=C1C[C@H](NC(=O)C2(C(=O)NNC(=O)c3ccc4ccccc4c3)CC2)C(O)O1 (stereo not given in full)
40,420,> 10,690,O=C1C[C@H](NC(=O)C2(C(=O)NNC(=O)c3cccc4ccccc34)Cc3ccccc3C2)C(O)O1 (stereo not given in full)
40,90,> 10,480,O=C1C[C@H](NC(=O)C2(C(=O)NNC(=O)c3cccc4ccccc34)CCCC2)C(O)O1 (stereo not given in full)
310,310,> 10,610,Cc1ccccc1C(=O)NNC(=O)C1(C(=O)N[C@H]2CC(=O)OC2O)CCC1 (stereo not given in full)
580,4300,> 10,6900,Cc1ccc(C(=O)NNC(=O)C2(C(=O)N[C@H]3CC(=O)OC3O)CCC2)cc1 (stereo not given in full)
150,2700,> 10,620,Cc1cccc(C(=O)NNC(=O)C2(C(=O)N[C@H]3CC(=O)OC3O)CCC2)c1 (stereo not given in full)
50,130,> 10,470,O=C1C[C@H](NC(=O)C2(C(=O)NNC(=O)c3cccc4ccccc34)CCC2)C(O)O1 (stereo not given in full)
430,3900,> 10,470,Cc1cccc(C(=O)NNC(=O)C2(C(=O)N[C@H]3CC(=O)OC3O)CCCCC2)c1 (stereo not given in full)
700,300,> 10,≥ 2500,COc1cccc(OC)c1C(=O)NNC(=O)C1(C(=O)N[C@H]2CC(=O)OC2O)CCCCC1 (stereo not given in full)
150,3200,> 10,570,O=C1C[C@H](NC(=O)C2(C(=O)NNC(=O)c3ccc4ccccc4c3)CCCC2)C(O)O1 (stereo not given in full)
240,1800,> 10,1300,COc1cccc(C(=O)NNC(=O)C2(C(=O)N[C@H]3CC(=O)OC3O)CCCCC2)c1 (stereo not given in full)
200,1170,> 10,550,COc1cccc(C(=O)NNC(=O)C2(C(=O)N[C@H]3CC(=O)OC3O)CCCC2)c1 (stereo not given in full)
≥ 10000,≥ 10000,> 10,≥ 10000,COc1cccc(C(=O)NNC(=O)C2(C(=O)N[C@H]3CC(=O)OC3O)CC2)c1 (stereo not given in full)
260,2200,> 10,400,COc1cccc(C(=O)NNC(=O)C2(C(=O)N[C@H]3CC(=O)OC3O)CCC2)c1 (stereo not given in full)
430,3120,> 10,≥ 2500,Cc1cccc(C(=O)NNC(=O)C2(C(=O)N[C@H]3CC(=O)OC3O)Cc3ccccc3C2)c1 (stereo not given in full)
3.6,40,,,CCO[C@@H]1OC(=O)C[C@@H]1NC(=O)[C@@H]1CCCN2C(=O)CC[C@H](NC(=O)c3nccc4ccccc34)C(=O)N12 [PRALNACASAN]
